# Measurements as given in patent US20210278408A1, “METHODS OF TREATMENT OF CANCER WITH SUBSTITUTED PYRROLE AND PYRAZOLE COMPOUNDS AND DIAGNOSIS OF CANCERS SUSCEPTIBLE TO TREATMENT WITH SUBSTITUTED PYRROLE AND PYRAZOLE COMPOUNDS” (Bantam Pharmaceutical, LLC, priority 2018, published 2021).
# Read-outs that look alike come from different tables or passages of the source.
# Tested on: 407 cancer cell lines
# Experiment: Cell viability of cancer cell lines (IC50), CellTiter-Glo Viability Assay, 96 h
# Assay type: cell-based
# Settings: for IC50: read-out: Absolute IC50
# Experimental: Viability was determined by using the 50% inhibitory concentration (IC50) as determined with the CellTiter-Glo® Viability Assay (Promega).
# Experiments were initiated by first thawing and equilibrating the CellTiter-Glo® Buffer to room temperature. The lyophilized CellTiter-Glo® Substrate was also equilibrated to room temperature. The lyophilized substrate was reconstituted with the CellTiter-Glo® buffer to form the CellTiter-Glo® Reagent.
# Cells were harvested during the logarithmic growth period, counted, and the cell concentration adjusted to 4.44×10^4 cells/mL using culture medium.
# Cells were allowed to grow overnight and the following day, the TO reading was obtained by adding 10 μL culture medium to each well of Plate A. The plate was allowed to equilibrate at room temperature for thirty minutes, after which 50 μL CellTiter-Glo® reagent was added to each well. The contents were mixed for 5 min on an orbital shaker to induce cell lysis. Plates were incubated for 20 minutes to stabilize the luminescent signal and the TO luminescence recorded.
# Test plate B was incubated for 96 h in the humidified incubator at 37° C. with 5% CO2.
# Following the incubation, the plate was equilibrated at room temperature for thirty minutes. CellTiter-Glo® (50 μL) was added to each well of the plate and contents mixed for five minutes on an orbital shaker to induce cell lysis. The luminescent signal was allowed to stabilize at room temperature for 20 minutes and the luminescence recorded.
# IC50 (EC50) was calculated using a dose-response curve, fitted using a nonlinear regression model with a sigmoidal dose response. Survival rate was calculated using the formula:
# The Surviving rate (%)=(LumTest article−LumMedium control)/(LumNon-treated−LumMedium control)×100%.
# Absolute IC50 (EC50) was calculated according to the dose-response curve generated by the statistical software (GraphPad Prism 5.0).
smiles,measurement,setting,value
"Cc1nn(-c2nc(-c3ccc(C(F)(F)F)cc3)c(SC(C)C)s2)c(C(=O)O)c1-c1cccc(F)c1 [Compound A197, 4-(3-fluorophenyl)-1-(5-(isopropylthio)-4-(4-(trifluoromethyl)phenyl)thiazol-2-yl)-3-methyl-1H-pyrazole-5-carboxylic acid]",IC50,"Homo sapiens, TT, 96 h, TT cells, 96 h",2070 nM
same,IC50,"Homo sapiens, Toledo, 96 h, Toledo cells, 96 h",1450 nM
same,IC50,"Homo sapiens, U2OS, 96 h, U-2 OS cells, 96 h",16800 nM
same,IC50,"Homo sapiens, U2932, 96 h, U-2932 cells, 96 h",460 nM
same,IC50,"Homo sapiens, U-87 MG, 96 h, U-87 MG cells, 96 h",24900 nM
same,IC50,"Homo sapiens, U-251, 96 h, U251 cells, 96 h",280 nM
same,IC50,"Homo sapiens, U-937, 96 h, U-937 cells, 96 h",410 nM
same,IC50,"Homo sapiens, UACC-812, 96 h, UACC-812 cells, 96 h",> 30000 nM
same,IC50,"Homo sapiens, UMUC3, 96 h, UM-UC-3 cells, 96 h",930 nM
same,IC50,"Homo sapiens, UO-31, 96 h, UO.31 cells, 96 h",> 30000 nM
same,IC50,"Homo sapiens, WM 266-4, 96 h, WM-266-4 cells, 96 h",> 30000 nM
same,IC50,"Homo sapiens, WSU-NHL, 96 h, WSU-NHL cells, 96 h",480 nM
same,IC50,"Homo sapiens, WSUDLCL2, 96 h, WSU-DLCL2 cells, 96 h",680 nM
same,IC50,"Homo sapiens, Y79, 96 h, Y-79 cells, 96 h",> 30000 nM
same,IC50,"Homo sapiens, Z-138, Z-138",1500 nM
same,IC50,"Homo sapiens, ZR-75-1, ZR-75-1",7810 nM
same,IC50,"Homo sapiens, ZR-75-30, 96 h",> 30000 nM
same,% inhibition at top conc.,"HuCCT1, 96 h",51.19%
same,% inhibition at top conc.,"Ishikawa, 96 h",82.51%
same,IC50,JAR,670 nM
same,% inhibition at top conc.,"JEG-3 cells, 96 h",52.54%
same,IC50,"JHH1, 96 h, JHH-1 cells, 96 h",> 30000 nM
same,IC50,"JHH7, 96 h, JHH-7 cells, 96 h",660 nM
same,IC50,"JHH-4, 96 h, JHH-4 cells, 96 h",1500 nM
same,IC50,"JVM13, JVM-13",390 nM
same,% inhibition at top conc.,"KATO III, 96 h",45.89%
same,IC50,"KPL4, KPL-4",250 nM
same,IC50,"L-82, L-82",3780 nM
same,% inhibition at top conc.,"LNCaP clone FGC, 96 h",76.07%
same,IC50,"Li-7, Li-7",850 nM
same,% inhibition at top conc.,"MDA-MB-436, 96 h",54.72%
same,% inhibition at top conc.,"MKN1 cells, 96 h",53.97%
same,% inhibition at top conc.,"MKN45, 96 h",14.51%
same,% inhibition at top conc.,"MKN74 cells, 96 h",52.90%
same,IC50,MM.1R,1190 nM
same,IC50,"MOLM16, 96 h, MOLM-16 cells, 96 h",350 nM
same,IC50,"MS751, 96 h, MS751 cells, 96 h",> 30000 nM
same,IC50,NAMALWA CSN/70,490 nM
same,% inhibition at top conc.,"NCI-H69 cells, 96 h",21.37%
same,% inhibition at top conc.,"NCI-H82, 96 h",92.52%
same,% inhibition at top conc.,"NCI-H146 cells, 96 h",37.67%
same,% inhibition at top conc.,"NCI-H209 cells, 96 h",45.11%
same,% inhibition at top conc.,"NCI-H292 cells, 96 h",54.61%
same,IC50,"NCI-H322, 96 h, NCI-H322 cells, 96 h",290 nM
same,% inhibition at top conc.,"NCI-H358 cells, 96 h",68.44%
same,% inhibition at top conc.,"NCI-H446 cells, 96 h",51.21%
same,% inhibition at top conc.,"NCI-H460 cells, 96 h",49.03%
same,% inhibition at top conc.,"NCI-H520 cells, 96 h",76.45%
same,% inhibition at top conc.,"NCI-H526 cells, 96 h",44.57%
same,% inhibition at top conc.,"NCI-H727 cells, 96 h",35.60%
same,IC50,"NCI-H820, 96 h, NCI-H820 cells, 96 h",350 nM
same,% inhibition at top conc.,"NCI-H820 cells, 96 h",78.69%
same,% inhibition at top conc.,"NCI-H1048 cells, 96 h",66.49%
same,% inhibition at top conc.,"NCI-H1155 cells, 96 h",79.14%
same,% inhibition at top conc.,"NCI-H1299 cells, 96 h",83.01%
same,IC50,"NCI-H1435, NCI-H1435",390 nM
same,IC50,"NCI-H1568, 96 h, NCI-H1568 cells, 96 h",270 nM
same,% inhibition at top conc.,"NCI-H1648 cells, 96 h",57.33%
same,% inhibition at top conc.,"NCI-H1651 cells, 96 h",67.37%
same,IC50,"NCI-H1688, NCI-H1688",> 30000 nM
same,% inhibition at top conc.,"NCI-H1703 cells, 96 h",73.10%
same,IC50,"NCI-H1781, 96 h, NCI-H1781 cells, 96 h",> 30000 nM
same,% inhibition at top conc.,"NCI-H1792 cells, 96 h",68.85%
same,IC50,"NCI-H1915, 96 h, NCI-H1915 cells, 96 h",> 30000 nM
same,% inhibition at top conc.,"NCI-H1975 cells, 96 h",25.02%
same,% inhibition at top conc.,"NCI-H1993 cells, 96 h",78.76%
same,% inhibition at top conc.,"NCI-H2087 cells, 96 h",50.14%
same,% inhibition at top conc.,"NCI-H2170 cells, 96 h",75.97%
same,% inhibition at top conc.,"NCI-H2228 cells, 96 h",54.12%
same,% inhibition at top conc.,"NCI-N87, 96 h",54.19%
same,IC50,NK-92MI,6580 nM
same,IC50,NOZ,710 nM
same,% inhibition at top conc.,"NUGC-3 cells, 96 h",63.39%
same,% inhibition at top conc.,"NUGC-4 cells, 96 h",62.77%
same,IC50,"OCUG-1, OCUG-1",1250 nM
same,IC50,"OCUM1, 96 h, OCUM-1 cells, 96 h",> 30000 nM
same,% inhibition at top conc.,"OCUM-1 cells, 96 h",19.71%
same,% inhibition at top conc.,"OCUM-2D cells, 96 h",65.33%
same,% inhibition at top conc.,"OCUM-2M cells, 96 h",66.13%
same,% inhibition at top conc.,"OE19, 96 h",53.21%
same,IC50,"OSC19, 96 h, OSC-19 cells, 96 h",> 30000 nM
same,% inhibition at top conc.,"OVCAR-3 cells, 96 h",46.65%
same,% inhibition at top conc.,"OVCAR-8 cells, 96 h",75.04%
same,IC50,OZ,> 30000 nM
same,% inhibition at top conc.,"PC-9 cells, 96 h",52.79%
same,IC50,PEER,1870 nM
same,IC50,"PL45, PL45",1190 nM
same,IC50,RD-ES,> 30000 nM
same,% inhibition at top conc.,"RPMI-2650 cells, 96 h",52.41%
same,% inhibition at top conc.,"RT4 cells, 96 h",49.68%
same,% inhibition at top conc.,"SCC-4, 96 h",26.22%
same,% inhibition at top conc.,"SCH cells, 96 h",53.08%
same,IC50,"SF763, SF-763",760 nM
same,% inhibition at top conc.,"SK-MEL-5, 96 h",25.67%
same,% inhibition at top conc.,"SK-MEL-28, 96 h",13.20%
same,% inhibition at top conc.,"SK-OV-3 cells, 96 h",34.62%
same,IC50,"SNU620, 96 h, SNU-620 cells, 96 h",> 30000 nM
same,IC50,"SNU668, 96 h, SNU-668 cells, 96 h",> 30000 nM
same,% inhibition at top conc.,"SNU-1 cells, 96 h",74.67%
same,% inhibition at top conc.,"SNU-5, 96 h",54.08%
same,IC50,SNU-81,> 30000 nM
same,IC50,"SNU-216, 96 h, SNU-216 cells, 96 h",> 30000 nM
same,IC50,SNU-368,> 30000 nM
same,IC50,"SNU-484, 96 h, SNU-484 cells, 96 h",> 30000 nM
same,% inhibition at top conc.,"SNU-484 cells, 96 h",45.94%
same,IC50,"SNU-601, 96 h, SNU-601 cells, 96 h",490 nM
same,% inhibition at top conc.,"SNU-601 cells, 96 h",67.28%
same,% inhibition at top conc.,"SNU-638 cells, 96 h",56.77%
same,% inhibition at top conc.,"SNU-719 cells, 96 h",32.64%
same,IC50,"SNU-739, SNU-739",20900 nM
same,% inhibition at top conc.,"SNU-761 cells, 96 h",59.03%
same,% inhibition at top conc.,"SNU-2535 cells, 96 h",46.87%
same,IC50,SNU-C2A,580 nM
same,IC50,"SW579, 96 h, SW579 cells, 96 h",> 30000 nM
same,% inhibition at top conc.,"SW684 cells, 96 h",4.22%
same,% inhibition at top conc.,"SW948 cells, 96 h",46.17%
same,IC50,"SW1271, SW1271",> 30000 nM
same,IC50,U266B1,> 30000 nM
same,% inhibition at top conc.,"UACC-812 cells, 96 h",20.05%
same,% inhibition at top conc.,"YCC-1 cells, 96 h",29.02%
same,% inhibition at top conc.,"YCC-6 cells, 96 h",56.86%
same,% inhibition at top conc.,"YCC-10, 96 h",38.86%
same,IC50,"YCC-11, 96 h, YCC-11 cells, 96 h",> 30000 nM
same,% inhibition at top conc.,"YCC-11 cells, 96 h",48.65%
same,% inhibition at top conc.,"ZR-75-30, 96 h",10.01%
